From ChEMBL document CHEMBL5154709, “Tetrazole derivatives bearing benzodiazepine moiety-synthesis and action mode against virulence of Candida albicans” (Eur J Med Chem, 2022)
Converted amounts (≈) assume the structure as drawn. The source made the active and inactive calls. No cut-off for these calls is given here.

Legend:
Candida albicans [1] = assay: Antifungal against Candida albicans cnb1delta/cnb1delta mutant biofilm assessed as increase cell membrane permeability at 16 ug/ml incubated for 18 hrs by Rho123 and Hoechst 33342 double staining based confocal laser scanning microscopic analysis; type: functional, organism-based; details: dose 16.0 µg/ml
Candida albicans [2] = assay: In vivo antifungal activity against Candida albicans SC5314 infected in Galleria mellonella larvae assessed as prevention of candidiasis at 16 ug/ml administered 1 hr post infection measured after 5 days by Hematoxylin and eosin staining; type: functional, organism-based; details: dose 16.0 µg/ml, time 5.0 day
Candida albicans [3] = assay: Antifungal activity against Candida albicans SC5314 assessed as inhibition of fungal growth at 8 ug/ml incubated for 18 hrs by M27-A3 based microdilution method relative to control; type: functional
Candida albicans [4] = assay: Antifungal activity against Candida albicans SC5314 assessed as inhibition of fungal growth at 2 ug/ml incubated for 18 hrs by M27-A3 based microdilution method relative to control; type: functional
Candida albicans [5] = assay: Antifungal activity against Candida albicans SC5314 assessed as inhibition of fungal growth at 2 ug/ml incubated for 48 hrs by M27-A3 based microdilution method relative to control; type: functional
Candida albicans [6] = assay: Antifungal activity against Candida albicans SC5314 assessed as inhibition of fungal growth at 1 ug/ml incubated for 18 hrs by M27-A3 based microdilution method relative to control; type: functional
Candida albicans [7] = assay: Antifungal activity against Candida albicans SC5314 assessed as inhibition of fungal growth at 0.125 ug/ml incubated for 48 hrs by M27-A3 based microdilution method relative to control; type: functional
Candida albicans [8] = assay: Antifungal activity against Candida albicans SC5314 assessed as inhibition of fungal growth at 0.03125 ug/ml incubated for 18 hrs by M27-A3 based microdilution method relative to control; type: functional
Candida albicans [9] = assay: Induction of apoptosis in Candida albicans SC5314 non-protoplast cells assessed as necrotic cells at 16 ug/ml incubated for 18 hrs by PI/Annexin V staining based flow cytometry assay; type: functional; details: dose 16 µg/ml
Candida albicans [10] = assay: Induction of reactive oxygen species generation in Candida albicans SC5314 assessed as increase in ROS level at 16 ug/ml incubated for 18 hrs by DCFH-DA staining based flow cytometric analysis (reference value: 0.77+/- 0.4%); type: functional; details: dose 16 µg/ml
Candida albicans [11] = assay: Induction of reactive oxygen species generation in Candida albicans CNB1/cnb1delta mutant assessed as increase in ROS level at 16 ug/ml incubated for 18 hrs by DCFH-DA staining based flow cytometric analysis (reference value: 3.8+/- 4.2%); type: functional; details: dose 16 µg/ml
Candida albicans [12] = assay: Antifungal against Candida albicans SC5314 biofilm co-cultured with African green monkey Vero cells assessed as accidental cell death in pseudohyphal cells by measuring orange fluorescence emission at 16 ug/ml incubated for 18 hrs by PI/acridine orange double staining based confocal laser scanning microscopic analysis; type: functional, organism-based; details: dose 16.0 µg/ml
Candida albicans [13] = assay: Induction of macrophage-mediated Candida albicans SC5314 phagocytosis assessed as change in hyphae properties at 16 ug/ml incubated for 18 hrs in presence of mouse RAW264.7 macrophages by PI/Acridine orange double staining based confocal laser scanning microscopic analysis; type: functional; details: dose 16.0 µg/ml
[14] = Toxicity in Galleria mellonella larvae assessed as melanization of larvae at 16 ug/ml measured every 24 hrs upto 5 days relative to control; details: 120 h, at 16 µg/mL, time < 5 day
Candida albicans [15] = assay: In vivo antifungal activity against Candida albicans SC5314 infected in Galleria mellonella larvae assessed as survival of larvae by measuring health score index at 16 ug/ml administered 1 hr prior to infection measured within 5 days by Hematoxylin and eosin staining; type: functional, organism-based; details: dose 16.0 µg/ml, time 5.0 day
Candida albicans [16] = assay: In vivo antifungal activity against Candida albicans SC5314 infected in Galleria mellonella larvae assessed as survival of larvae by measuring health score index at 16 ug/ml administered 1 hr post infection measured within 5 days by Hematoxylin and eosin staining; type: functional, organism-based; details: dose 16.0 µg/ml, time 5.0 day
Candida albicans [17] = assay: Antifungal activity against Candida albicans assessed as inhibition of fungal growth measured after 48 hrs by M27-A3 based broth microdilution; type: functional
Candida albicans [18] = assay: Antifungal activity against Candida albicans assessed as inhibition of fungal growth measured after 48 hrs in presence of exogenous ergosterol by M27-A3 based broth microdilution; type: functional
Candida albicans [19] = assay: Effect on HSP90 expression in Candida albicans cnb1delta/CNB1 mutant assessed as decrease in relative expression of HSP90 gene level at 2 ug/ml incubated for 18 hrs by RT-PCR analysis; type: functional; details: dose 2.0 µg/ml
Candida albicans [20] = assay: Effect on HSP90 expression in Candida albicans BWP17 assessed as fold increase in relative expression of HSP90 gene level at 2 ug/ml incubated for 18 hrs in presence of calcium chloride by RT-PCR analysis; type: functional; details: dose 2.0 µg/ml

Compound: O=C1CN=C(c2ccccc2Br)c2cc(F)ccc2N1CCCn1nnc(-c2ccccc2Cl)n1
- Activity (Candida albicans [1]): Active
- Activity (Candida albicans [2]): Active
- inhibition at 8 µg/mL (Candida albicans [3]): 99.1%
- inhibition at 2 µg/mL (Candida albicans [4]): 100%
- inhibition at 2 µg/mL (Candida albicans [5]): 100%
- inhibition at 1 µg/mL (Candida albicans [6]): 99.1%
- inhibition at 0.125 µg/mL (Candida albicans [7]): 99.3%
- inhibition at 0.03125 µg/mL (Candida albicans [8]): 100%
- Activity (Candida albicans [9]): 81.37%
- Activity (Candida albicans [10]): 24.4%
- Activity (Candida albicans [11]): 4.9%
- Activity (Candida albicans [12]): Active
- Activity (Candida albicans [13]): Active
- Activity [14]: 7%
- Activity (Candida albicans [15]): Active
- Activity (Candida albicans [16]): Active
- MIC (Candida albicans [17]): 64 µg/mL (≈ 116 µM)
- MIC (Candida albicans [18]): 2.56 µg/mL
- Activity (Candida albicans [19]): Active
- fold change (FC) (Candida albicans [20]): 4
